Experimental data reported in patent US8691576B2, “Regeneration and mass propagation of Jatropha curcas through somatic embryogenesis” (Joil (S) Pte Ltd., priority 2008, dated 2014).

Assays:
Assay type in all cases: cell-based
[1] = test system: Jatropha curcas somatic embryos (TISEs); experiment: Effect of GA3 on germination of somatic embryos; settings: for Hypocotyl Extension % / Root Growth % / Viable Germination SE % / Hypocotyl Extension SE Count / Root Growth SE Count / Viable Germination SE Count: three weeks; for Hypocotyl Extension SE Count / Root Growth SE Count / Viable Germination SE Count: 30 explants;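 for all read-outs here: groups of 20–30 TISEs per medium were moved onto each medium and scored for germination traits, with GA3-free media as the comparison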
[2] = test system: Jatropha curcas embryogenic calli; experiment: Embryogenic liquid suspension culture; settings: KNO3 increased to 1.9 g/l to 3.8 g/l
Experimental: FIGS. 5A-5D show embryogenic liquid suspension culture. About 50 mg embryogenic calli produced in solid DGA medium were inoculated in 20 ml modified DGA liquid media. Embryos larger than 2 mm were removed before inoculation. Subculture was done every two weeks. Photos were taken after 2 subcultures. FIG. 5A: 20 g/l sucrose, 1 g/l glutamine, 0.5 g/l asparagine, no 2,4-D. FIG. 5B: 20 g/l sucrose, 1 g/l glutamine, 0.5 g/l asparagine, 0.2 g/1 2,4-D. FIG. 5C: 30 g/l sucrose, 1 g/l glutamine, 0.5 g/l asparagine, 0.2 g/1 2,4-D. FIG. 5D: 20 g/l sucrose, 1 g/l glutamine, 0.5 g/l asparagine, 1 g/1 2,4-D. Arrow indicates the non-embryogenic ball-shaped calli. Scale bar represents 1 cm.
Liquid cultures were performed in 65 mm plastic cylinder containers or 250 ml glass conical flasks that were placed in shakers set at 80 rpm, 28° C. constant temperature and 16-8 hours day-light cycles.
Effects 2,4-D and carbon source on establishment of somatic embryogenic liquid suspension culture was investigated. […] At sucrose level ranging from 10-30 g/l, continued culture lead to maturation of the somatic embryo with no new initiation of secondary embryos (FIG. 5A). The somatic embryos thus produced share good synchrony and are excellent materials for re-induction of TIISEs (Refer to Example 13). […] The suspension cultures were stable for months if large embryos were removed. Further, sucrose concentration needs to be reduced below about 20 g/l (compare FIGS. 5B and 5C).

[3] = test system: Jatropha curcas somatic embryo explants; experiment: Re-initiation of somatic embryogenesis from matured somatic embryos on solid DGA and derivative media; settings: for production of secondary somatic embryos and embryogenic calli: supplementation in solid DGA-type medium
Experimental: Somatic embryos were matured in 2,4-D-free liquid MS medium and hypocotyl-root apex tissues were excised from somatic embryos larger than 0.5 cm. Those smaller than 0.5 cm were cultured intact. The explants were cultured in various DGA or its derivative solid medium. […] 2,4-D and kinetin could be added as optional supplements (not shown).

[4] = test system: Jatropha curcas immature embryo and endosperm explants; experiment: Effect of kinetin on TISE and TIISE formation; settings: for TIISE (%) >5 SE / TIISE (%) >10 SE / TIISE (%) Total / TISE (%): 5 mg/l 2,4-D, 6 weeks, then DGA 4 weeks
Experimental: Developing fruits were surface-sterilized and dissected to yield 120 immature embryos that were shorter than 1.5 cm in length. After cutting into halves, the explants were cultured in media with a series of kinetin concentrations. On the 5th day, the endosperm tissues were separated from the embryos, further reduced into small pieces of about 0.25 cm^2 and transferred to the fresh medium with the same kinetin concentrations. After one subcultures (6 weeks in total), the calli were transferred to DGA medium and cultured for one month. Twenty immature embryos were used in each treatment. It was observed that TISEs were almost exclusively formed on endosperm tissues where the embryos had been detached after three's culture.

[5] = test system: Jatropha curcas somatic embryos; experiment: Effect of abscisic acid in maturation media on germination; settings: ABA 0-5 mg/l in DGA or EGA media or variants
Experimental: To further explore methods to improve germination, abscisic acid (ABA) between 0-5 mg/l was supplemented in DGA or EGA media or their variants with 10-30 g/l sucrose and 20-60 g/1 maltose. […] Examples of the effects are shown in Table 10, where 20-30 TISEs were transferred to various media listed below. Except in ¼ strength MS medium, few somatic embryos germinated without GA3. […] Reducing the strength of basal salts was likewise beneficial to germination of somatic embryos.

[6] = Full strength MS salt and B5 vitamins, GA3 2 mg/L
[7] = Full strength MS salt and B5 vitamins, GA3 3 mg/L
[8] = ¼ Strength MS salt and B5 vitamins, GA3 2 mg/L
[9] = ¼ Strength MS salt and B5 vitamins, GA3 3 mg/L
[10] = ½ Strength MS salt and B5 vitamins, GA3 2 mg/L
[11] = ½ Strength MS salt and B5 vitamins, GA3 3 mg/L

## C=C1C[C@]23C[C@@]1(O)CC[C@H]2[C@@]12C=C[C@H](O)[C@@](C)(C(=O)O1)[C@H]2[C@@H]3C(=O)O [GA3, gibberellic acid]
[1]; [6]
  Hypocotyl Extension %: 30%
  Root Growth %: 53%
  Viable Germination SE %: 30%
  Hypocotyl Extension SE Count: 16
  Root Growth SE Count: 16
  Viable Germination SE Count: 9
[1]; [7]
  Hypocotyl Extension %: 44%
  Root Growth %: 37%
  Viable Germination SE %: 5%
  Hypocotyl Extension SE Count: 16
  Root Growth SE Count: 11
  Viable Germination SE Count: 2
[1]; many media tested
  germination of somatic embryos: significantly improved germination in many media tested
[1]; [8]
  Hypocotyl Extension %: 32%
  Root Growth %: 43%
  Viable Germination SE %: 19%
  Hypocotyl Extension SE Count: 14
  Root Growth SE Count: 13
  Viable Germination SE Count: 6
[1]; [9]
  Hypocotyl Extension %: 26%
  Root Growth %: 47%
  Viable Germination SE %: 8%
  Hypocotyl Extension SE Count: 12
  Root Growth SE Count: 14
  Viable Germination SE Count: 2
[1]; [10]
  Hypocotyl Extension %: 34%
  Root Growth %: 27%
  Viable Germination SE %: 21%
  Hypocotyl Extension SE Count: 9
  Root Growth SE Count: 8
  Viable Germination SE Count: 7
[1]; [11]
  Hypocotyl Extension %: 26%
  Root Growth %: 53%
  Viable Germination SE %: 23%
  Hypocotyl Extension SE Count: 14
  Root Growth SE Count: 16
  Viable Germination SE Count: 6

## O=[N+]([O-])[O-].[K+] [KNO3]
[2]
  maintenance of liquid suspension culture: facilitated maintaining the liquid suspension culture at early stages of embryogenesis
[3]; increase in KNO3 in modified DGA solid medium
  embryo differentiation and maturation: favored embryo differentiation but inhibited maturation

## c1coc(CNc2ncnc3[nH]cnc23)c1 [Kinetin, kinetin]
[4]; Kinetin 0.05 mg/l
  TIISE (%) >5 SE: 15%
  TIISE (%) >10 SE: 0%
  TIISE (%) Total: 25%
  TISE (%): 35%
[4]; Kinetin 0.1 mg/l
  TIISE (%) >5 SE: 15%
  TIISE (%) >10 SE: 5%
  TIISE (%) Total: 30%
  TISE (%): 35%
[4]; Kinetin 0.2 mg/l
  TIISE (%) >5 SE: 15%
  TIISE (%) >10 SE: 0%
  TIISE (%) Total: 30%
  TISE (%): 40%
[4]; Kinetin 0.5 mg/l
  TIISE (%) >5 SE: 10%
  TIISE (%) >10 SE: 5%
  TIISE (%) Total: 20%
  TISE (%): 25%
[4]; Kinetin 1 mg/l
  TIISE (%) >5 SE: 0%
  TIISE (%) >10 SE: 0%
  TIISE (%) Total: 15%
  TISE (%): 45%
[4]; kinetin 0-1 mg/l
  TIISEs formation: appeared to negatively affect TIISEs formation
  induction of TISEs: played little role in induction of TISEs

## CC1=CC(=O)CC(C)(C)[C@@]1(O)/C=C/C(C)=C\C(=O)O [abscisic acid]
[5]
  plantlet abnormality: plantlet abnormality was apparently increased
[5]; germination in MS medium
  improvement of germination: Improvement of germination in MS medium was not observed

## NC(=O)C[C@H](N)C(=O)O [asparagine]
[3]
  production of secondary somatic embryos and embryogenic calli: greatly improved production of secondary somatic embryos and embryogenenic calli

## NC(=O)CC[C@H](N)C(=O)O [glutamine]
[3]
  production of secondary somatic embryos and embryogenic calli: greatly improved production of secondary somatic embryos and embryogenenic calli
